Reference: patent publication US7582418B2, “Antimicrobial chelates” (Albion Laboratories, Inc., priority 2004, dated 2009)

Assays:
Format in all cases: cell-based
[1] = system: Eschrichia coli; experiment: Turbidity assay (TSB tubes, plated out); set-up: key: no-growth (NG) which corresponds with excellent inhibitory activity; partial growth (PG) which corresponds with good inhibitory activity; complete growth (CG) which corresponds with little or no inhibitory activity; conditions: TSB tube with 1.0 mL sample solution (100 mg/mL) and 50 μL 24-hour culture; after 24 hours plated, incubated 24 hours
Description: (§1) In the second method, turbidity assays were conducted. Tryptic soy broth (TSB) tubes were inoculated with 1.0 mL of sample solutions (100 mg/mL) and 50 μL of 24-hour cultures of each microbe. In the case of C. albicans, 100 μL of 24-hour culture was used. After 24 hours, an aliquot from each tube was plated out onto nutrient media and incubated for 24 hours. Following incubation, colonies on each plate were observed and characterized as one of three categories: no-growth (NG) which corresponds with excellent inhibitory activity, partial growth (PG) which corresponds with good inhibitory activity, complete growth (CG) which corresponds with little or no inhibitory activity.
(§2) S. pyongenes, could not be grown in the solution, so the turbidity assay was not conducted for that microorganism. When the data from both zone inhibition (Table 2) and turbidity (Table 3) assays are compared, an indication of the inhibition activity may be evident.

[2] = system: Staphlococcus aureus; experiment: Turbidity assay (TSB tubes, plated out); set-up: key: no-growth (NG) which corresponds with excellent inhibitory activity; partial growth (PG) which corresponds with good inhibitory activity; complete growth (CG) which corresponds with little or no inhibitory activity; conditions: TSB tube with 1.0 mL sample solution (100 mg/mL) and 50 μL 24-hour culture; after 24 hours plated, incubated 24 hours
Description: as §1, §2

[3] = system: Candida albicans; experiment: Turbidity assay (TSB tubes, plated out); set-up: key: no-growth (NG) which corresponds with excellent inhibitory activity; partial growth (PG) which corresponds with good inhibitory activity; complete growth (CG) which corresponds with little or no inhibitory activity; conditions: TSB tube with 1.0 mL sample solution (100 mg/mL) and 100 μL 24-hour culture; after 24 hours plated, incubated 24 hours
Description: as §1, §2

[4] = system: Streptococcus pyogenes; experiment: Zone inhibition assay (filter paper disc area diffusion); conditions: distance from edge of disc to bacterial growth; blood agar; discs saturated with 100 mg/ml solution (antibiotic control discs 5-30 μg); 24 hours at 37° C.
Description: (§3) Two methods were used to examine whether an inhibitory effect from the zinc containing compounds was observable and if there was an inhibitory effect, whether the effect was bactericidal (bacteria-killing) or bacteriostatic (bacterial-inhibiting) in nature. In the first method, two Gram-positive bacteria strains (Staphlococcus aureus, Streptococcus pyogenes), two Gram-negative bacteria strains (Salmonella typhimerium, Eschrichia coli), and one common yeast strain (Candida albicans) were grown nutrient agar plates, except in the case of S. pyogenes which was grown on blood agar plates.
(§4) Zone inhibition assays were conducted with eighteen different samples in accordance with the methodology described by Maruzella, J. C. and Henry, P. A., J. Am. Pharm. Assoc. 47:894 (1958) for filter paper disc area diffusion. Sample solutions were prepared to approximate 100 mg/mL concentrations.
(§5) Organisms were grown for 24 hours at 37° C. on blood agar plates with the exception of Candida albicans which was grown in a standard methods agar (SMA) medium. Solutions of each sample were prepared using sterile DD water at a concentration of 100 mg/ml. Paper discs were saturated with solution from each sample and dried aseptically. […] Following drying of solution derived discs, all discs were placed on agar plates with each of the five different microorganisms.

[5] = system: Eschrichia coli; experiment: as above; conditions: distance from edge of disc to bacterial growth; discs saturated with 100 mg/ml solution (antibiotic control discs 5-30 μg); 24 hours at 37° C.
Description: as §3, §4, §5

[6] = system: Salmonella typhimerium; experiment: as above; conditions: distance from edge of disc to bacterial growth; discs saturated with 100 mg/ml solution (antibiotic control discs 5-30 μg); 24 hours at 37° C.
Description: as §3, §4, §5

[7] = system: Staphlococcus aureus; experiment: as above; conditions: distance from edge of disc to bacterial growth; discs saturated with 100 mg/ml solution (antibiotic control discs 5-30 μg); 24 hours at 37° C.
Description: as §3, §4, §5

[8] = system: Candida albicans; experiment: as above; conditions: distance from edge of disc to growth; discs saturated with 100 mg/ml solution (antibiotic control discs 5-30 μg); 24 hours at 37° C.
Description: as §3, §4, §5

Compound	colony growth category, Eschrichia coli [1]	colony growth category, Staphlococcus aureus [2]	colony growth category, Candida albicans [3]	inhibitory zone, Streptococcus pyogenes [4]	inhibitory zone, Eschrichia coli [5]	inhibitory zone, Salmonella typhimerium [6]	inhibitory zone, Staphlococcus aureus [7]	inhibitory zone, Candida albicans [8]
[Cl-].[Cl-].[Zn+2] [Sample 1, Zinc Chloride]	PG	PG	PG	2.5 millimeters	4 millimeters	3.5 millimeters	6 millimeters	4.5 millimeters
Cc1cc(NS(=O)(=O)c2ccc(N)cc2)no1 [Sample 12, Sulfamethoxazole]	CG	CG	CG	7.5 millimeters	3 millimeters	4 millimeters	3.5 millimeters	no activity
Zinc Gluconate [Sample 7]				5 millimeters	2 millimeters	2.75 millimeters	3 millimeters	no activity
CC(=O)[O-].[Na+] [Sample 15, Sodium Acetate]	NG	NG	CG	no activity	no activity	no activity	no activity	no activity
CN[C@H](CC(C)C)C(=O)N[C@H]1C(=O)N[C@@H](CC(N)=O)C(=O)N[C@H]2C(=O)N[C@H]3C(=O)N[C@H](C(=O)N[C@H](C(=O)O)c4cc(O)cc(O)c4-c4cc3ccc4O)[C@H](O)c3ccc(c(Cl)c3)Oc3cc2cc(c3O[C@@H]2O[C@H](CO)[C@@H](O)[C@H](O)[C@H]2O[C@H]2C[C@](C)(N)[C@H](O)[C@H](C)O2)Oc2ccc(cc2Cl)[C@H]1O [Sample 13, Vancomycin]				5 millimeters	no activity	no activity	5 millimeters	no activity
CN(C)[C@@H]1C(O)=C(C(N)=O)C(=O)[C@@]2(O)C(O)=C3C(=O)c4c(O)cccc4[C@@](C)(O)[C@H]3C[C@@H]12 [Sample 11, Tetracycline]				no activity	5.5 millimeters	7 millimeters	7.5 millimeters	no activity
O=S(=O)([O-])[O-].[Na+].[Na+] [Sample 17, Sodium Sulfate]				no activity	no activity	no activity	no activity	no activity
NCC(=O)[O-].NCC(=O)[O-].[Zn+2] [Sample 5, Zinc Bis-Glycinate]	NG	PG (1)	NG	4 millimeters	3.5 millimeters	3.5 millimeters	3.5 millimeters	0.5 millimeters
O=C([O-])CC(O)(CC(=O)[O-])C(=O)[O-].O=C([O-])CC(O)(CC(=O)[O-])C(=O)[O-].[Zn+2].[Zn+2].[Zn+2] [Sample 2, Zinc Citrate]				3.5 millimeters	1.5 millimeters		1 millimeters	no activity
[Cl-].[Na+] [Sample 14, Sodium Chloride]				no activity	no activity	no activity	no activity	no activity
O=C(O)c1cn(C2CC2)c2cc(N3CCNCC3)c(F)cc2c1=O [Sample 9, Ciproflaxicin]				3 millimeters	5 millimeters	10 millimeters	8.5 millimeters	no activity
NCC(=O)[O-].[Na+] [Sample 16, Sodium Glycinate]				no activity	no activity	no activity	no activity	no activity
O=S(=O)([O-])[O-].[Zn+2] [Sample 4, Zinc Sulfate]	CG	CG	CG	2 millimeters	3.5 millimeters	3 millimeters	3.7 millimeters	2 millimeters
O=C([O-])CCCCC1CCSS1.O=C([O-])CCCCC1CCSS1.[Zn+2] (stereo not drawn) [Sample 6, Zinc Lipoate]				1 millimeters	.5 millimeters	2 millimeters	1.5 millimeters	no activity
O=C([O-])CC(O)(CC(=O)[O-])C(=O)[O-].[Na+].[Na+].[Na+] [Sample 18, Sodium Citrate]				no activity	no activity		no activity	no activity
NC[C@@H]1O[C@H](O[C@H]2[C@@H](O)[C@H](O[C@@H]3[C@@H](O)[C@H](N)C[C@H](N)[C@H]3O[C@H]3O[C@H](CN)[C@@H](O)[C@H](O)[C@H]3N)O[C@@H]2CO)[C@H](N)[C@@H](O)[C@@H]1O [Sample 8, Neomycin]				3 millimeters	3 millimeters	6 millimeters	6 millimeters	no activity
CC1(C)S[C@@H]2[C@H](NC(=O)[C@H](N)c3ccc(O)cc3)C(=O)N2[C@H]1C(=O)O [Sample 10, Amoxicillin]					3.5 millimeters	8 millimeters	7.5 millimeters	no activity
CC(=O)[O-].CC(=O)[O-].[Zn+2] [Sample 3, Zinc Acetate]				3.5 millimeters	3 millimeters	3 millimeters	2 millimeters	2 millimeters
